These are literature values, as cited in patent US20190037897A1, “AMORPHOUS COOLER DISPERSION COMPOSITION” (International Flavors & Fragrances Inc., priority 2016, published 2019).

For the data set the following is noted: compared to menthol (as 100).
Consider `CCNC(=O)C1CC(C)CCC1C(C)C` (stereo not shown) [WS-3, N-Ethyl-p-menthane-3-carboxamide], for which the relative cooling strength is reported as 150. For the molecule `COc1ccc(NC(=O)[C@@H]2C[C@H](C)CC[C@H]2C(C)C)cc1` [WS-12, (1R,2S,5R)-N-(4-Methoxyphenyl)-p-menthanecarboxamide], the relative cooling strength is given as 150. Take `CC1CCC(C(C)C)C(O)C1` (stereo not shown) [menthol]: the relative cooling strength is 100. Take “Ethyl 3-(p-menthane-3-carboxamido)acetate [WS-5]”: the relative cooling strength is recorded as 400.
